Source: paper PMC12902737 (Biotechnology and Applied Biochemistry, 2025)
Read-outs that look alike come from different tables or passages of the source.

Tests used:
ALR2 enzyme = ALR2 enzyme (Ovis aries, UniProt A0ACI6S8R2); test: ALR2 enzyme activity / in vitro inhibition (NADPH absorbance decrease at 340 nm, DL-glyceraldehyde substrate); type: biochemical
Experimental: By tracking the shift in absorbance at 340 nm brought on by a decrease in NADPH, ALR2 activity was ascertained. The reaction mixture for ALR2 activity consists of 0.8 M Na‐phosphate buffer (pH = 5.5), NADPH (0.11 mM), DL‐glyceraldehyde (4.7 mM), and enzyme solution [36, 37]. […] Every measurement was taken three times.
The K I values and inhibition types were ascertained using the Lineweaver and Burk curves (Figure 5).

ALR2 [1] = system: ALR2; design: method as in ref 79 (Sever et al.); conditions: ref 79 (Sever et al.); cited from earlier work
ALR2 [2] = system: ALR2; design: method as in ref 80 (Racowitz et al.); conditions: ref 80 (Racowitz et al.); cited from earlier work

## Brc1ccc(-c2ccon2)cc1 [d, 3‐(4‐bromophenyl) isoxazole]
ALR2 enzyme; Lineweaver-Burk curves
  Inhibition type: Competitive

## Fc1ccc(-c2ccno2)cc1 [f, 5‐(4‐fluorophenyl) isoxazole]
ALR2 enzyme; Lineweaver-Burk curves
  Inhibition type: Competitive

## COc1ccc(-c2ccno2)cc1 [h, 5‐(4‐methoxyphenyl) isoxazole]
ALR2 enzyme; Lineweaver-Burk curves
  Inhibition type: Competitive

## O=c1c(O)c(-c2ccc(O)c(O)c2)oc2cc(O)cc(O)c12 [quercetin]
ALR2 [1]
  IC50: 3.23 µM

## Isoxazole
ALR2 enzyme; Lineweaver-Burk curves
  Inhibition type: Noncompetitive
ALR2 enzyme; mean ± standard error of mean, Lineweaver-Burk curves
  Ki: 0.0895 ± 0.00468 µM
ALR2 enzyme; mean ± standard error of mean, from Activity (%) vs compound graphs
  IC50: 0.043 ± 0.00164 µM

## CC(/C=C1\SC(=S)N(CC(=O)O)C1=O)=C\c1ccccc1 [EPR, Epalrestat, reference compound]
ALR2 enzyme
  Inhibition type: Noncompetitive

## Clc1ccc(-c2ccno2)cc1 [g, 5‐(4‐chlorophenyl) isoxazole]
ALR2 enzyme; Lineweaver-Burk curves
  Inhibition type: Competitive

## O=[N+]([O-])c1ccc(-c2ccon2)cc1 [Compound c, 3‐(4‐nitrophenyl) isoxazole]
ALR2 enzyme; Lineweaver-Burk curves
  Inhibition type: Competitive

## Clc1ccc(-c2ccon2)cc1 [b, 3‐(4‐chlorophenyl) isoxazole]
ALR2 enzyme; Lineweaver-Burk curves
  Inhibition type: Competitive

## O=C(O)Cc1nn(Cc2ccc(Br)cc2F)c(=O)c2ccccc12 [ponalrestat]
ALR2 [2]
  IC50: 0.08 µM

## Fc1ccc(-c2ccon2)cc1 [e, 3‐(4‐fluorophenyl) isoxazole]
ALR2 enzyme; Lineweaver-Burk curves
  Inhibition type: Competitive

## O=C1NC(=O)[C@@]2(CCOc3ccc(F)cc32)N1 [sorbinil]
ALR2 [2]
  IC50: 3.42 ± 0.02 µM
